According to patent US8530493B2, “Indolopyridines as Eg5 kinesin modulators” (4SC AG, priority 2006, dated 2013):

What follows are compounds tested on RKO p21 uninduced (proliferating) colon adenocarcinoma cells (assay: Alamar Blue cell viability assay, RKO p21 uninduced (proliferating)). Conditions: Homo sapiens, Table B3, anti-proliferative/cytotoxic activity, 72 hours, read-out: −log EC50 RKO p21 uninduced (proliferating) (converted).
Type: cell-based
In short: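 RKO p21 or p27 subclones grown without Ponasterone A, i.e. proliferating, exposed 24 h after seeding to semi-log compound dilutions in DMEM/10% FCS (1% DMSO controls) for 72 h at 37° C. Alamar Blue fluorescence (544/590 nm) read relative to untreated cells; EC50 from dose-response curves, given as −log EC50 (mol/l).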
`COc1cc2c3c([nH]c2cc1F)[C@@H](c1cccc(O)c1)N1C(=O)N(CCN(C)CCO)C(=O)[C@]1(C)C3` [Example 246, (3aS,10R)-7-Fluoro-2-{2-[(2-hydroxy-ethyl)-methyl-amino]-ethyl}-10-(3-hydroxy-phenyl)-6-methoxy-3a-methyl-3a,4,9,10-tetrahydro-2,9,10a-triaza-cyclopenta[b]fluorene-1,3-dione] showed an EC50 of 39.8 to 251 nM. For `COCCNCCCN1C(=O)N2[C@H](c3cccc(O)c3)c3[nH]c4ccc(OC)cc4c3C[C@@]2(C)C1=O` [Example 490, (3aS,10R)-10-(3-Hydroxy-phenyl)-6-methoxy-2-[3-(2-methoxy-ethylamino)-propyl]-3a-methyl-3a,4,9,10-tetrahydro-2,9,10a-triaza-cyclopenta[b]fluorene-1,3-dione], the EC50 was at most 39.8 nM. Compound `C=CCNCCCN1C(=O)N2[C@H](c3cccc(O)c3)c3[nH]c4ccc(OC)cc4c3C[C@@]2(C)C1=O` [Example 533, (3aS,10R)-2-(3-Allylamino-propyl)-10-(3-hydroxy-phenyl)-6-methoxy-3a-methyl-3a,4,9,10-tetrahydro-2,9,10a-triaza-cyclopenta[b]fluorene-1,3-dione] has an EC50 of at most 39.8 nM. Compound `COc1ccc2[nH]c3c(c2c1)C[C@@]1(C)C(=O)N(CCCNCC(C)C)C(=O)N1[C@@H]3c1cccc(O)c1` [Example 534, (3aS,10R)-10-(3-Hydroxy-phenyl)-2-(3-isobutylamino-propyl)-6-methoxy-3a-methyl-3a,4,9,10-tetrahydro-2,9,10a-triaza-cyclopenta[b]fluorene-1,3-dione] has an EC50 of at most 39.8 nM. Compound `COc1ccc2[nH]c3c(c2c1)C[C@@]1(C)C(=O)N(CCCNCC2CC2)C(=O)N1[C@@H]3c1cccc(O)c1` [Example 535, (3aS,10R)-2-[3-(Cyclopropylmethyl-amino)-propyl]-10-(3-hydroxy-phenyl)-6-methoxy-3a-methyl-3a,4,9,10-tetrahydro-2,9,10a-triaza-cyclopenta[b]fluorene-1,3-dione] has an EC50 of at most 39.8 nM. Work on `COc1ccc2[nH]c3c(c2c1)C[C@@]1(C)C(=O)N(CCCNCCO)C(=O)N1[C@@H]3c1cccc(O)c1` [Example 536, (3aS,10R)-2-[3-(2-Hydroxy-ethylamino)-propyl]-10-(3-hydroxy-phenyl)-6-methoxy-3a-methyl-3a,4,9,10-tetrahydro-2,9,10a-triaza-cyclopenta[b]fluorene-1,3-dione] yielded an EC50 of at most 39.8 nM. Work on `COc1ccc2[nH]c3c(c2c1)C[C@@]1(C)C(=O)N(CCCNC2CC2)C(=O)N1[C@@H]3c1cccc(O)c1` [Example 537, (3aS,10R)-2-(3-Cyclopropylamino-propyl)-10-(3-hydroxy-phenyl)-6-methoxy-3a-methyl-3a,4,9,10-tetrahydro-2,9,10a-triaza-cyclopenta[b]fluorene-1,3-dione] yielded an EC50 of at most 39.8 nM. `COc1ccc2[nH]c3c(c2c1)C[C@@]1(C)C(=O)N(CCCNC(C)(C)C)C(=O)N1[C@@H]3c1cccc(O)c1` [Example 538, (3aS,10R)-2-(3-tert-Butylamino-propyl)-10-(3-hydroxy-phenyl)-6-methoxy-3a-methyl-3a,4,9,10-tetrahydro-2,9,10a-triaza-cyclopenta[b]fluorene-1,3-dione] gave an EC50 of at most 39.8 nM. For `C#CCNCCCN1C(=O)N2[C@H](c3cccc(O)c3)c3[nH]c4ccc(OC)cc4c3C[C@@]2(C)C1=O` [Example 539, (3aS,10R)-10-(3-Hydroxy-phenyl)-6-methoxy-3a-methyl-2-(3-prop-2-ynylamino-propyl)-3a,4,9,10-tetrahydro-2,9,10a-triaza-cyclopenta[b]fluorene-1,3-dione], the EC50 was at most 39.8 nM. `COc1ccc2[nH]c3c(c2c1)C[C@@]1(C)C(=O)N(CCCN(C)C)C(=O)N1[C@@H]3c1cccc(O)c1` [Example 540, (3aS,10R)-2-(3-Dimethylamino-propyl)-10-(3-hydroxy-phenyl)-6-methoxy-3a-methyl-3a,4,9,10-tetrahydro-2,9,10a-triaza-cyclopenta[b]fluorene-1,3-dione] was tested, and the EC50 was at most 39.8 nM.
